Results published in publication PMC9867241, “Antioxidant and Cytotoxic Activity of New Polyphenolic Derivatives of Quinazolin-4(3H)-one: Synthesis and In Vitro Activities Evaluation” (Pharmaceutics, 2022).
pIC50: −log10 of the molar value. Converted amounts (≈) assume the structure as drawn.

Columns and labels:
[1] = Cupric reducing antioxidant capacity (CUPRAC) assay; design: concentration or dose not given beside the values; settings: for CUPRAC, % of Activity of Trolox: relative to Trolox; for CUPRAC, % of Activity of Ascorbic Acid: relative to ascorbic acid
Protocol: The ability to donate electrons was evaluated for the compounds 5a–d and 6a–d, by the CUPRAC (CUPric reducing antioxidant capacity) method. The absorbance was measured against a blank sample, at λ = 450 nm. The assay was performed based on our group’s previous report by the adaptation of the initial report of Alam et al., Özyürek et al. and Apak et al.. With the use of Equation (4), the cupric ion reduction by compounds 5a–d and 6a–d was expressed as a percentage of the reference compound activity.
The Cu^2+ ions are reduced to Cu^+ ions by the electron-donating compounds. The Cu^+ ions are chelated by neocuproine, giving a colored complex with absorbance proportional to the quantity of Cu^+ ions that resulted.

[2] = test system: A549 (lung adenocarcinoma) cells; assay: Cytotoxicity, Alamar blue assay, A549 cells; type: cell-based; settings: Homo sapiens, 24 h exposure
Text: (§1) Normal human foreskin (BJ) fibroblasts and two types of cancer cells, namely A549 (lung adenocarcinoma) and LNCaP (prostate carcinoma) purchased from American Type Culture Collection (Manassas, VA, USA), were used in the experiments. Each cell line was maintained in a different culture medium, depending on the metabolic necessities of the cells. BJ cells were maintained in Dulbecco’s modified Eagle’s medium (DMEM) with low glucose. A549 cells were maintained in DMEM with high glucose […], while LNCaP cells were grown in Roswell Park Memorial Institute (RPMI) 1640 medium with high glucose (5 g/L). All media used were supplemented with 10% fetal bovine serum (FBS) and were refreshed every two days. Cells were used in experiments or subcultured when they reached 70–80% confluence.
(§2) In 100 µL in 96-well plates, a number of 30,000 LNCaP cells, 15,000 A549 cells, and 7500 normal (BJ) cells were seeded. Because the cells have different sizes and volumes, the purpose of the different seedings was to achieve a confluency of 70–80% after 24 h. All types of cells were further exposed to the synthesized compounds (5a–d and 6a–d) for 24 h, at a concentration ranging from 12.5 to 100 µg/mL. Post-exposure, the media were removed, and the cells were washed with phosphate buffer saline (PBS). Their viability was evaluated using Alamar blue (AB) assay as previously described. Briefly, the cells were incubated with a 200 µM resazurin solution for 4 h. Using a Synergy 2 multi-mode microplate reader, we measured the fluorescence. The measurement was performed at λexcitation = 530/25 nm; λemission = 590/35 nm. We conducted the experiments using three biological replicates, each one including 6 technical replicates. As negative controls (NC), cells exposed to culture medium containing 0.2% DMSO were used. Compared to the NC (100%), the results were expressed as relative values. We used IC50 values for the potency evaluation, and calculated them for each cell line, using the dose-effect curves obtained by fitting the experimental data with a 4-parameter logistic curve.
(§3) Mean values ± standard deviation (SD) values of at least three biological replicates were used to calculate experimental data. One-way analysis of variance (ANOVA) with a post hoc Holm–Sidak test was used to statistically examine the data. Using SigmaPlot 11.0 software (Systat, Software Inc., Chicago, IL, USA), we performed the graphical display and data analysis. From a statistical point of view, the results were considered different, at values of p < 0.05.

[3] = Phosphomolybdate assay for total antioxidant capacity (TAC); design: concentration or dose not given beside the values; settings: for TAC, % of Activity of Trolox: relative to Trolox; for TAC, % of Activity of Ascorbic Acid: relative to ascorbic acid
Text: Using the phosphomolybdate assay, we determined the total antioxidant capacity (TAC) of the tested compounds. We measured the solutions’ absorbances against a blank sample at λ = 695 nm, using a previously reported procedure by our group, based on initial literature reports. Using Equation (4), we calculated the TAC of 5a–d and 6a–d compounds.
At acidic pH, the tested compounds transfer one electron to Mo^6+ to reduce it to Mo^5+.

[4] = DPPH˙ radical scavenging assay
Protocol: (§4) The stock solutions (1 mg/mL) of the tested compounds and the controls were obtained, by dissolving the substances in dimethyl sulfoxide (DMSO). Using Jasco V-530, an UV-VIS spectrophotometer (Jasco International Co., Ltd., Tokyo, Japan), we performed the colorimetric determinations in low-volume single-use 10 mm width cuvettes.
(§5) The assays were performed in triplicate and the results are presented as averages for each assay.
The DPPH˙ radical scavenging assay is based on the transfer of one hydrogen from the analyzed compound to the violet stable free radical DPPH˙ (2,2-diphenyl-1-picrylhydrazyl), as we convert it into a yellow compound. The absorbance of the reagent mixed with samples presented inversely proportional values to the amount of DPPH˙ neutralized. The absorbance of the reagent was measured at λ = 517 nm, according to our previous reports. The assay was made in the presence of various concentrations of samples. The used protocol is based on the report of Brand-Williams et al..

[5] = test system: LNCaP (prostate carcinoma) cells; assay: Cytotoxicity, Alamar blue assay, LNCaP cells; type: cell-based; settings: Homo sapiens, 24 h exposure
Text: as §1, §2, §3

[6] = ABTS˙+ radical scavenging assay
Protocol: as §4, §5

[7] = NO˙ radical scavenging assay (Griess reaction); settings: PBS pH 7.4, sodium nitroprusside
Protocol: The scavenging of the NO˙ radical was performed by applying previously reported protocols. The in vitro protocol describes the decomposition of sodium nitroprusside in phosphate buffered saline (PBS) at pH = 7.4. The NO˙ radicals would be involved in a Griess reaction if they were not captured by the tested compounds. This reaction results from the formation of an azo dye, with maximum absorption at 546 nm. This azo dye is formed from sulfanilic acid and naphthyl ethylenediamine dichloride.

Structure (SMILES)	CUPRAC, % of Activity of Trolox [1]	CUPRAC, % of Activity of Ascorbic Acid [1]	IC50 [2]	TAC, % of Activity of Trolox [3]	TAC, % of Activity of Ascorbic Acid [3]	pIC50 [4]	IC50 (DPPH˙ scavenging) [4]	% of DPPH˙ Scavenging ([4]; 1.25 µg/mL)	% of DPPH˙ Scavenging ([4]; 2.5 µg/mL)	% of DPPH˙ Scavenging ([4]; 3.75 µg/mL)	% of DPPH˙ Scavenging ([4]; 5 µg/mL)	% of DPPH˙ Scavenging ([4]; 7.5 µg/mL)	% of DPPH˙ Scavenging ([4]; 10 µg/mL)	% of DPPH˙ Scavenging ([4]; 12.5 µg/mL)	% of DPPH˙ Scavenging ([4]; 15 µg/mL)	IC50 [5]	pIC50 [6]	IC50 (ABTS˙^+ scavenging) [6]	% of ABTS˙^+ Scavenging ([6]; 0.83 µg/mL)	% of ABTS˙^+ Scavenging ([6]; 1.67 µg/mL)	further results
CC(=NNC(=O)CSc1nc2ccccc2c(=O)n1Cc1ccccc1)c1ccc(O)cc1O [Compound 6b, 2-((3-Benzyl-4-oxo-3,4-dihydroquinazolin-2-yl)thio)-N’-(1-(2,4-dihydroxyphenyl)ethylidene)acetohydrazide]	22.63%	23.74%	42.2 µg/mL	101.03%	52.36%	< 4.52	>15 µg/mL	- (- represents less than 5%)	- (- represents less than 5%)	- (- represents less than 5%)	- (- represents less than 5%)	- (- represents less than 5%)	- (- represents less than 5%)	- (- represents less than 5%)	11.59%	30.4 µg/mL	5.06	4.13 µg/mL (≈ 8.7 µM)	26.26%	33.32%	% of ABTS˙^+ Scavenging ([6]; 3.33 µg/mL): 44.60%; % of ABTS˙^+ Scavenging ([6]; 4.99 µg/mL): 55.88%; % of ABTS˙^+ Scavenging ([6]; 6.66 µg/mL): 68.23%; % of ABTS˙^+ Scavenging ([6]; 9.99 µg/mL): 90.98%; % of ABTS˙^+ Scavenging ([6]; 13.32 µg/mL): + (+ represents more than 95%); % of NO˙ Scavenged [7]: 33.31%
CCn1c(SCC(=O)NN=C(C)c2ccc(O)cc2O)nc2ccccc2c1=O [Compound 6c, N’-(1-(2,4-dihydroxyphenyl)ethylidene)-2-((3-ethyl-4-oxo-3,4-dihydroquinazolin-2-yl)thio)acetohydrazide]	29.09%	30.52%	> 100 µg/mL	110.05%	57.03%	< 4.52	>15 µg/mL	- (- represents less than 5%)	- (- represents less than 5%)	- (- represents less than 5%)	- (- represents less than 5%)	- (- represents less than 5%)	- (- represents less than 5%)	10.11%	14.89%	> 100 µg/mL	5.01	4.06 µg/mL (≈ 9.84 µM)	29.08%	34.73%	% of ABTS˙^+ Scavenging ([6]; 3.33 µg/mL): 43.19%; % of ABTS˙^+ Scavenging ([6]; 4.99 µg/mL): 54.47%; % of ABTS˙^+ Scavenging ([6]; 6.66 µg/mL): 68.58%; % of ABTS˙^+ Scavenging ([6]; 9.99 µg/mL): 91.60%; % of ABTS˙^+ Scavenging ([6]; 13.32 µg/mL): + (+ represents more than 95%); % of NO˙ Scavenged [7]: 30.62%
